Assay [1] concerns influenza A virus strain A/Vietnam/1194/04 (H5N1). Further details: species or system BALB/c mice. The conditions noted are these: mouse, in vivo.
The next assay deals with influenza A/H2N2 virus. The conditions noted are these: mouse, in vivo; cited from earlier work.
For assay [2], the system named is influenza A virus strain A/Vietnam/1194/04 (H5N1). Further details: species or system BALB/c mice. The conditions noted are these: mouse, in vivo. The source holds these as a separate data set.
The subject of assay [3] is IL-1, IL-6, IFN-γ, TNF-α, MIP-1, PGE2, leukotriene. Briefly: ELISA of pro-inflammatory cytokines, chemokines, PGE2 and leukotriene in tracheal-pulmonary lavage. The format is in vivo, BALB/c mice. On the technique in general: An ELISA detects its analyte on a solid surface through an enzyme-linked reagent.

Where “and” joins values, the source holds several entries; their conditions need not be identical. Equal values may be shown once.

Consider `Cc1ccc(-c2cc(C(F)(F)F)nn2-c2ccc(S(N)(=O)=O)cc2)cc1` [celecoxib], for which the mean survival time result in assay [1] is given as “about 8.5 days”.
Regarding `Cc1ccc(C)c(OCCCC(C)(C)C(=O)O)c1` [gemfibrozil], in assay [1], the mean survival time result was “about 7.5 days” and the survival entry is given as “no significant improvement”. Also, the “survival of mice infected by influenza A/H2N2 virus” value in the assay on influenza A/H2N2 virus was 52%.
In the case of `Nc1ccc(O)c(C(=O)O)c1` [mesalazine, 5-aminosalicylic acid], in assay [1], the mean survival time result is reported as “about 8.5 days”.
Regarding `CC(=O)N[C@H]1[C@H]([C@H](O)[C@H](O)CO)OC(C(=O)O)=C[C@@H]1N=C(N)N` [zanamivir], in assay [1], the mean survival time was 10.7 ± 1.6 days and 8.4 days; the survival result is on record as “All mice survived”; the survival rate is given as 13.3%. Moreover, in assay [2], the “TCID50 titer in the tracheal-pulmonary lavage” value was “below our detectable limit”. For the same compound, the “levels of inflammatory markers IL-6, IFN-γ, TNF-α, MIP-1 and leukotriene in tracheal-pulmonary lavage” value in assay [3] (compared with triple therapy (P<0.01 or 0.05) or uninfected normal mice) is recorded as “significantly higher”. In assay [3] (zanamivir alone and controls vs triple therapy, P>0.05), the “IL-1 levels in tracheal-pulmonary lavage” value is listed as “only slightly lower”.

The values above are taken from patent publication US20090298797A1, “COMBINATION THERAPY FOR THE TREATMENT OF INFLUENZA” (priority 2008, published 2009).
